In patent US10071133B2, “Method for destroying exosomes, kit for destroying exosomes, and method for isolating exosomes derived from normal cells” (priority 2015, dated 2018):

Tests used:
Assay type in all cases: biochemical
[1] = system: exosome derived from human prostate cancer cells (PC3ML); experiment: Extraction of microRNA (miR-21) from exosome derived from prostate cancer cells, real-time PCR; conditions: 100 μM peptide, 1×10^11 particles/mL PC3ML exosomes, 0.4 U/μL RNase inhibitor, 37° C., 24 hours; without peptide 3×10^−14M
Procedure: A cell suspension of cell line PC3ML derived from human prostate cancer cells (provided by the National Cancer Center Research Institute) was seeded in a dish containing RPMI 1640 medium (manufactured by Thermo Fisher Scientific Inc.) containing 10% fetal bovine serum. Subsequently, the cell line was grown at 37° C. under the condition that CO2 concentration was set to 5 volume % using a CO2 incubator, and then the medium was replaced with Advanced RPMI 1640 medium (manufactured by Thermo Fisher Scientific Inc.), followed by culturing for 48 hours, and the culture solution containing exosomes was obtained. This culture solution was centrifuged at 2,000 G for 10 minutes to remove the precipitate, followed by centrifugation at 110,000 G for 70 minutes to precipitate the exosomes, and therefore an exosome fraction was recovered. The recovered exosome fraction was suspended in a phosphate buffered saline (PBS) and then stored at 4° C. Storage samples were lightly suspended with a vortex mixer (vibration mixer) before use. […]
The reverse transcription PCR solution obtained by the above described method was processed and by comparing the number of cycles on a calibration curve of microRNA using Taqman Assay primer (manufactured by Thermo Fisher Scientific Inc., Taqman microRNA Assays, Taqman Assay primer, and hsa-mir-21 or hsa-mir-16) and Real-Time PCR Master Mixes (manufactured by Thermo Fisher Scientific Inc., TaqMan Universal PCR Master Mix II, w/UNG) with StepOnePlus Real-Time PCR System, MiR-21 or miR-16 was quantified. […]
The amount of microRNA (miR-21) contained in the recovered eluate was quantified by the above described real-time PCR method. […] In addition, the destructive activity of the antimicrobial peptide used was evaluated on the basis of the following criteria based on the quantitative result of the concentration of microRNA (miR-21) performed by the real-time PCR method. […]

[2] = system: exosome fraction A prepared from the cell line MM231-luc-D3H2LN derived from human breast cancer cells; experiment: Destruction of exosomes in PBS, number of exosomes by nanoparticle analyzer (NanoSight LM10); conditions: 100 μM peptide, 1.36×10^10 particles/mL exosomes in PBS, 25° C., 24 hours; without peptide 1.36×10^10
Text: Storage samples were lightly suspended with a vortex mixer (vibration mixer) before use.

[3] = system: exosome fraction B derived from human breast cancer cells (MDA-MB-231-luc-D3H2LN); experiment: Extraction of microRNA (miR-21) from exosomes derived from human breast cancer cells, real-time PCR; conditions: 100 μM peptide, 1×10^11 particles/mL exosomes, 0.4 U/μL RNase inhibitor, 37° C., 24 hours; without peptide 8×10^−14M
Procedure: A cell suspension of cell line MDA-MB-231-luc-D3H2LN derived from human breast cancer (=MM231-luc-D3H2LN, provided by the National Cancer Center Research Institute) was seeded in a dish containing RPMI 1640 medium (manufactured by Thermo Fisher Scientific Inc.) containing 10% fetal bovine serum. Subsequently, the cell line was grown at 37° C. under the condition that CO2 concentration was set to 5 volume % using a CO2 incubator, and then the medium was replaced with Advanced RPMI 1640 medium (manufactured by Thermo Fisher Scientific Inc.), followed by culturing for 48 hours, and therefore the culture solution containing exosomes was obtained. This culture solution was centrifuged at 2,000 G for 10 minutes to remove the precipitate, followed by centrifugation at 110,000 G for 70 minutes to precipitate the exosomes, and therefore an exosome fraction B was recovered. The recovered exosome fraction B was suspended in a phosphate buffered saline (PBS) and then stored at 4° C. Storage samples were lightly suspended with a vortex mixer (vibration mixer) before use.
MicroRNA (miR-21 or miR-16) in the reaction solution was subjected to reverse transcription PCR using reverse transcription primers (manufactured by Thermo Fisher Scientific Inc., Taqman microRNA Assays, RT primers, and hsa-mir-21 or hsa-mir-16) and a reverse transcriptase (manufactured by Thermo Fisher Scientific Inc., Taqman microRNA RT kit).
The reverse transcription PCR solution obtained by the above described method was processed and by comparing the number of cycles on a calibration curve of microRNA using Taqman Assay primer (manufactured by Thermo Fisher Scientific Inc., Taqman microRNA Assays, Taqman Assay primer, and hsa-mir-21 or hsa-mir-16) and Real-Time PCR Master Mixes (manufactured by Thermo Fisher Scientific Inc., TaqMan Universal PCR Master Mix II, w/UNG) with StepOnePlus Real-Time PCR System, MiR-21 or miR-16 was quantified. The calibration curve of microRNA was created using synthetic miR-21 (manufactured by Sigma-Aldrich Co. LLC.) or synthetic miR-16 (manufactured by Sigma-Aldrich Co. LLC.).
10 μL of the exosome fraction was prepared such that PBS contains 1×10^11 particles/mL of the exosome fraction B derived from human breast cancer cells, various antimicrobial peptides shown in the following Table 2 adjusted to 100 μM, and 0.4 U/μL of RNase inhibitor (manufactured by Toyobo Co., Ltd.), followed by incubation by being left to stand at 37° C. for 24 hours.
MicroRNA eluted into the solution was purified and recovered from the incubated solution of Example 10 above and Comparative Example 6 above by the following method.
First, 160 μL of PBS was added to the reaction solution, and then the solution was added to a centrifugal filter (manufactured by Millipore Corporation, Amicon Ultra 0.5 mL, 100K filter) and centrifuged at 14,000 G for 2 minutes. Subsequently, 100 μL of the centrifuged filtrate was recovered and introduced into a 1.5 mL tube. Next, 350 μL of RLT buffer (manufactured by QIAGEN, attached with RNeasy mini kit) and 675 μL of ethanol were added and mixed in the 1.5 mL tube. The obtained mixture was separated into two parts, and each of the separates was added onto a spin column (manufactured by QIAGEN, attached with RNeasy mini kit) followed by centrifugation at 8,000 G for 15 seconds, and the entire amount of the mixture was passed through the spin column. Thereafter, 500 μL of RPE buffer (manufactured by QIAGEN, attached with RNeasy mini kit) was added thereto and centrifuged at 8,000 G for 15 seconds. Furthermore, 500 μL of the RPE buffer was added to the spin column once more and centrifuged at 8,000 G for 15 seconds. Thereafter, the spin column was centrifuged at 14,000 G for 1 minute to remove the residual RPE buffer. Next, 30 μL of RNase free water (manufactured by QIAGEN, attached with RNeasy mini kit) was added to the spin column, left for 1 minute, and then centrifuged at 14,000 G for 1 minute, and the eluate obtained thereby was recovered. […]

Magainin 2 was tested, and the “Destructive activity (concentration of microRNA miR-21 in eluate)” value [1] was “B (the concentration of microRNA is 5×10^−14M to 10×10^−14M)”, the “number of exosomes in the solution” value [2] was 1.89×10^9 particles/mL and the “Destructive activity (concentration of microRNA miR-21 in eluate)” value [3] was “A (the concentration of microRNA is 50×10^−14M or more)”.
